Patent publication US20210079039A1, “COMPOSITIONS AND METHODS FOR THE SELECTIVE DELIVERY OF THERAPEUTIC AND IMAGING AGENTS” (Avelas Biosciences, Inc., priority 2018, published 2021)
pEC50: −log10 of the molar value. Numbered stars: 1 amine (or outer) side, 2 acyl side, 3 side chain; on linkers, the order of the positions; unused ones are H or OH. Square brackets hold non-standard residues; d marks the D form. Peptide text beside a SMILES is read from it. * marks the point of attachment. ξ: configuration not given here. Dolaproine(all-ξ) = COC(C(C)C(=O)[*:2])C1CCCN1[*:1]; Dolaproine = CO[C@@H]([C@@H]1CCCN1)[C@@H](C)C(=O)O; Hexanoyl(6-maleimido) = O=C1C=CC(=O)N1CCCCCC(=O)*; X1 = CC(C)[C@@H](C(=O)[*:2])N(C)C[C@@H](C)N[*:1]; Dil = CC[C@H](C)[C@H](NC)[C@@H](CC(=O)O)OC; X2 = CCC(C)C(C(CC(=O)[*:2])OC)N(C)[*:1]; X5 = CC(C)[C@@H](C(=O)*)N(C)C[C@@H](C)N; X4 = CC(C)[C@@H](C(=O)*)N(C)C[C@H](C)N; Cit = NC(=O)NCCC[CH](N)C(=O)O; NMeV = CN[CH](C(=O)O)C(C)C; ξCit = NC(=O)NCCCC(N)C(=O)O; X3 = CC(N*)C(O)c1ccccc1; Me2Gly = CN(C)CC(=O)*

Legend:
HT1080 Cells = test: Active Cellular Cytotoxic (ACC) molecules efficacy in HT1080 cells in vitro assay; type: cell-based; details: Homo sapiens, HT-1080, 96 h, four days incubation, Prestoblue, average error of 38%
Method: Method: Plate cells one day prior to start of assay in 96 well black with clear bottom plates (Corning #3603), 2×10^4 cells per well in 100 μL of standard growth media (according to ATCC). Grow cells to 90% confluency.
Before start of assay rinse cells 1× with DPBS. Add compounds in a 3-fold serial dilution in triplicate (range e.g. 40 μM-18 nM), 100 μL per well in standard growth media.
Incubate four days then assay cell viability as described below. Remove media and rinse 1× with DPBS, then add 100 μL per well 10% Prestoblue Cell viability reagent (Thermo Fisher Scientific #A13261) in complete media. Return to incubator for two hours then read plate on SpectraMax M2e, bottom read excitation 555 emission 585 cut-off 570 which measures number of live cells. Cell viability was plotted versus compound concentration and data were fit to Log inhibitor vs response curve in GraphPad Prism and EC50 were determined.
Table 14 provides cellular activity data for exemplary ACCs (compound EC50 for reduction of viable cells).

[1] = test system: HT-1080 human fibrosarcoma tumor xenograft; test: HT-1080 human fibrosarcoma tumor xenograft therapeutic model; type: in vivo, athymic nude mice; details: 0.6 to 3.0 mg/kg of cytotoxic agent component, IV on days 0 and 3, tumor volume at day 9
Method: Female athymic nude mice (8-10 weeks old) purchased from Charles River (Wilmington, 01887, MA) were used after 4-7 day of acclimatization period. Institutional Animal Care and Use Committee (IACUC) approved protocols #EB11-002-009-1 and CP-17-09. HT-1080 human fibrosarcoma tumor cells from ATCC (CCL-121™) were grown using standard cell culture techniques. Tumor cells (1×10^8 tumor cells/mL) were suspended in DPBS/Matrigel™ (1:1 vol) and implanted subcutaneously (50 μL tumor cell suspension/mouse) into the upper mammary fat pad or right flank of mice with individual identification number (ear tag). Four to seven days later when the average tumor volume was about 50-100 mm^3, mice were randomized into different experimental groups to have similar averaged (Mean±SEM) tumor volume and dosed with (i) vehicle and (ii) different doses of test compounds. Each group typically had 4 mice. For each involved tumor-bearing mouse, the tumor volume (mm^3) was measured using a caliper and calculated as follows: tumor volume=width^2×length/2. Test compounds were administered intravenously (tail vein) twice (two administrations 3 days apart) in conscious restrained tumor-bearing mice throughout the study. Individual tumor volume, body weight as well as clinical signs were recorded during the study. Each study was terminated on day 12 post-dosing initiation. Mice were euthanized by intracardiac ketamine-xylazine overdose after recording the last individual body weight and tumor volume. For each experimental group and study day, the tumor volumes from all mice were averaged and expressed as Mean±SD. In order to directly and objectively compare anti-tumor activity of candidate SDM's, tumor volume was assessed at the same Day 9 timepoint (6 days after the cessation of test compound administration) for each experimental cohort of test compound-treated group(s) and vehicle. Graphs show tumor volume in cubic millimeters versus time. […] Compound administration is indicated by downward arrow over data point on day 0 and 3.

| SMILES | pEC50 (HT1080 Cells) | Efficacy (percent tumor growth inhibition versus vehicle) [1] |
| --- | --- | --- |
| CC[C@H](C)[C@@H]([C@@H](CC(=O)N1CCC[C@H]1[C@H](OC)[C@@H](C)C(=O)N[C@@H](Cc1ccccc1)C(=O)O)OC)N(C)C(=O)[C@@H](NC(=O)[C@H](C(C)C)N(C)C[C@@H](C)NC(=O)CN)C(C)C [ACC-8] (H-G[X1]V[Dil][Dolaproine]F-OH) | 6.04 | – |
| CC[C@H](C)[C@@H]([C@@H](CC(=O)N1CCC[C@H]1[C@H](OC)[C@@H](C)C(=O)N[C@@H](Cc1ccccc1)C(=O)O)OC)N(C)C(=O)[C@@H](NC(=O)[C@H](C(C)C)N(C)C[C@@H](C)N)C(C)C [ACC-10] (X5-V[Dil][Dolaproine]F-OH) | 5.99 | – |
| CC[C@H](C)[C@@H]([C@@H](CC(=O)N1CCC[C@H]1[C@H](OC)[C@@H](C)C(=O)N[C@@H](Cc1ccccc1)C(=O)O)OC)N(C)C(=O)[C@@H](NC(=O)[C@H](C(C)C)N(C)C[C@H](C)N)C(C)C [ACC-11] (X4-V[Dil][Dolaproine]F-OH) | 5.76 | – |
| CC[C@H](C)[C@@H]([C@@H](CC(=O)N1CCC[C@H]1[C@H](OC)[C@@H](C)C(=O)N[C@@H](Cc1ccccc1)C(=O)NC)OC)N(C)C(=O)[C@@H](NC(=O)[C@H](C(C)C)N(C)C(=O)CNC(=O)[C@H](CCCNC(N)=O)NC(=O)[C@@H](NC(=O)CCCCCN1C(=O)C=CC1=O)C(C)C)C(C)C [SDM-380] ({Hexanoyl(6-maleimido)}-V[Cit]G[NMeV]V[Dil][Dolaproine]F-NHMe) | – | Low (Low: <29% inhibition) |
| CC[C@H](C)[C@@H]([C@@H](CC(=O)N1CCC[C@H]1[C@H](OC)[C@@H](C)C(=O)N[C@@H](Cc1ccccc1)C(=O)O)OC)N(C)C(=O)[C@@H](NC(=O)[C@H](C(C)C)N(C)C(=O)CNC)C(C)C [ACC-4] (HELM PEPTIDE1{[Sar].[meV].V.[CC[C@H](C)[C@@H]([C@@H](CC(=O)[*:2])OC)N(C)[*:1]].[CO[C@H]([C@@H](C)C(=O)[*:2])[C@@H]1CCCN1[*:1]].F}$$$$V2.0) | 5.36 | – |
| CC[C@H](C)[C@@H]([C@@H](CC(=O)N1CCC[C@H]1[C@H](OC)[C@@H](C)C(=O)N[C@@H](Cc1ccccc1)C(=O)O)OC)N(C)C(=O)[C@@H](NC(=O)[C@H](C(C)C)N(C)C(=O)CN(C)C)C(C)C [ACC-1] (Me2Gly-[NMeV]V[Dil][Dolaproine]F-OH) | 5.68 | – |
| CC[C@H](C)[C@@H]([C@@H](CC(=O)N1CCC[C@H]1[C@H](OC)[C@@H](C)C(=O)N[C@@H](Cc1ccccc1)C(=O)O)OC)N(C)C(=O)[C@@H](NC(=O)[C@H](C(C)C)N(C)C(=O)CN)C(C)C [ACC-5] (HELM PEPTIDE1{G.[meV].V.[CC[C@H](C)[C@@H]([C@@H](CC(=O)[*:2])OC)N(C)[*:1]].[CO[C@H]([C@@H](C)C(=O)[*:2])[C@@H]1CCCN1[*:1]].F}$$$$V2.0) | 6.15 | – |
| CCC(C)C(C(CC(=O)N1CCCC1C(OC)C(C)C(=O)NC(C)C(O)c1ccccc1)OC)N(C)C(=O)C(NC(=O)C(C(C)C)N(C)C(=O)CNC(=O)C(CCCNC(N)=O)NC(=O)C(NC(=O)CCCCCN1C(=O)C=CC1=O)C(C)C)C(C)C (stereo not drawn) [SDM-320, maleimidocaproyl-valine-citrulline-GlyMMAE] ({Hexanoyl(6-maleimido)}-V[Cit]G[NMeV]V[X2][Dolaproine(all-ξ)]-X3; configuration not given here) | – | Low (Low: <29% inhibition) |
| CC[C@H](C)[C@@H]([C@@H](CC(=O)N1CCC[C@H]1[C@H](OC)[C@@H](C)C(=O)N[C@@H](Cc1ccccc1)C(=O)OC)OC)N(C)C(=O)[C@@H](NC(=O)[C@H](C(C)C)N(C)C[C@@H](C)NC(=O)C(CCCNC(N)=O)NC(=O)[C@@H](NC(=O)CCCCCN1C(=O)C=CC1=O)C(C)C)C(C)C (stereo partly drawn) [SDM-344] ({Hexanoyl(6-maleimido)}-V[ξCit][X1]V[Dil][Dolaproine]F-OMe) | – | Medium (Medium: ≥29% inhibition to <80% inhibition) |
